Measurements from the Kinase Knowledgebase extract (Sharma et al. 2016).
pIC50: −log10 of the molar value.

Legend:
[1] = biological target: CDK2 (UniProt P24941); assay: Enzyme Assay
[2] = biological target: CDK2 (UniProt P24941); assay: Enzyme Assay; settings: for inhibition: concentration not given here
[3] = biological target: ROCK2 (rat) (UniProt Q62868); assay: Inhibition of ROCK2 Kinase Activity; settings: concentration not given here
[4] = biological target: MAPK14 (human) (UniProt Q16539); assay: Inhibition of MAPK14 Kinase Activity; settings: for inhibition: concentration not given here
MAPK14 (human), sequence (Q16539 whole entry, looked up): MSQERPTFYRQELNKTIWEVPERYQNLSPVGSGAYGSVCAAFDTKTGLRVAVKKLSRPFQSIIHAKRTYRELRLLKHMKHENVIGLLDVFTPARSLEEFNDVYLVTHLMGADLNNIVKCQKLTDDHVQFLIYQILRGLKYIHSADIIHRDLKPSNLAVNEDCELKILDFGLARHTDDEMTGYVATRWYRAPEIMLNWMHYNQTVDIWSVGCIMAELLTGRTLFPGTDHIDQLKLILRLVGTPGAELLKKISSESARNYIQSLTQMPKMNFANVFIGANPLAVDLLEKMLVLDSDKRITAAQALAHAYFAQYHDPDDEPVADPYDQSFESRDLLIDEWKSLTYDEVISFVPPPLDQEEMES

ROCK2 (rat), sequence (Q62868 whole entry, looked up): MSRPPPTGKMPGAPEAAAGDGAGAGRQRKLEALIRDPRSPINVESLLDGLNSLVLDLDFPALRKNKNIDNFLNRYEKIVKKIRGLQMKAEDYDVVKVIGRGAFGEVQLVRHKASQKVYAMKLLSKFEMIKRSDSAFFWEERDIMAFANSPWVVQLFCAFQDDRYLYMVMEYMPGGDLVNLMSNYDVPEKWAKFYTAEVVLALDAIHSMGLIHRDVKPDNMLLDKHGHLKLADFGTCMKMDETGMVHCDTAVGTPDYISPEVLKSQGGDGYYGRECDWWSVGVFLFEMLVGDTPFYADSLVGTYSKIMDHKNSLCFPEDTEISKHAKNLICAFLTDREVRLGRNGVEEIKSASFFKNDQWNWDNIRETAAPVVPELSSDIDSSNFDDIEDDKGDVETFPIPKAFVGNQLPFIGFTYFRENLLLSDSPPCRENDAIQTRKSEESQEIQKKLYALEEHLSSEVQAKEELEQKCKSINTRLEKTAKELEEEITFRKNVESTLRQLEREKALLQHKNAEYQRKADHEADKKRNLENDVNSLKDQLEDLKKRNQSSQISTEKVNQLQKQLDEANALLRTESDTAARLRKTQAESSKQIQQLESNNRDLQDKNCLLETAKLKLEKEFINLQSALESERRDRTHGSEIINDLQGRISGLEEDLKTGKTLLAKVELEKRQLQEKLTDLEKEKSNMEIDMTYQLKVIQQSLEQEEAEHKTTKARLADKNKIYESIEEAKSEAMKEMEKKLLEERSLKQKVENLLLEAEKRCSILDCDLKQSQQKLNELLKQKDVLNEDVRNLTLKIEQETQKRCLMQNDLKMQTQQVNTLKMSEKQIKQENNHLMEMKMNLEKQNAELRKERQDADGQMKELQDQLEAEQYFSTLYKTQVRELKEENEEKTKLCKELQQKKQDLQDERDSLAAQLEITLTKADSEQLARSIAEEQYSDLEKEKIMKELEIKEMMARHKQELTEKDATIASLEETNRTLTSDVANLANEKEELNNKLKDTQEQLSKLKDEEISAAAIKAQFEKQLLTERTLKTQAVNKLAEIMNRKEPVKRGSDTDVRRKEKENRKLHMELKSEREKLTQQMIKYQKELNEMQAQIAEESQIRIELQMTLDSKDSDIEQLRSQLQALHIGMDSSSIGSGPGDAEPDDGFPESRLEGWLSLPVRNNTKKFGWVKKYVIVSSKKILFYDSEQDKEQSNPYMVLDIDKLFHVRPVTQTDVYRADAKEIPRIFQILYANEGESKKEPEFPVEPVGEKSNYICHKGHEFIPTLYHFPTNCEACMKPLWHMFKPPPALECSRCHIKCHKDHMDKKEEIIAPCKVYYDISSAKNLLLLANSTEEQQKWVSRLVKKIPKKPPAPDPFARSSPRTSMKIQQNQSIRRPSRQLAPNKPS

Row | pIC50 [1] | SMILES | further results
1 | 8.22 | CNc1nc(C)c(-c2ccnc(Nc3ccc(S(=O)(=O)NCCO)cc3)n2)s1 | –
2 | 6.49 | CNc1nc(C)c(-c2ccnc(Nc3ccc(C)c(Br)c3)n2)s1 | –
3 | 6.60 | CCNc1nc(C)c(-c2ccnc(Nc3ccc(N4CCNCC4)cc3)n2)s1 | pIC50 [2]: 7.30; inhibition [2]: 99%; inhibition [3]: 95%; inhibition [4]: 61%
4 | 7.22 | Cc1nc(N)sc1-c1ccnc(Nc2cccc(CNS(=O)(=O)C(F)(F)F)c2)n1 | –
5 | 6.00 | COCCOC(=O)COc1cccc(Nc2nccc(-c3sc(N)nc3C)n2)c1 | –
6 | 6.59 | COCCNS(=O)(=O)c1cccc(Nc2nccc(-c3sc(N)nc3C)n2)c1 | pIC50 [4]: < 5.00
7 | 5.49 | CNc1nc(C)c(-c2ccnc(Nc3ccc(C)c(S(=O)(=O)N4CCOCC4)c3)n2)s1 | pIC50 [4]: < 5.00
8 | 6.49 | Cc1nc(C)c(-c2ccnc(Nc3cccc(S(C)(=O)=O)c3)n2)s1 | –
9 | 6.49 | Cc1nc(C)c(-c2ccnc(Nc3cccc(S(=O)(=O)NCCO)c3)n2)s1 | –
10 | – | CCNc1nc(C)c(-c2ccnc(Nc3ccc(S(N)(=O)=O)cc3)n2)s1 | pIC50 [2]: 8.22
11 | 7.92 | Cc1nc(N)sc1-c1ccnc(Nc2ccc(S(=O)(=O)NCc3ccccc3)cc2)n1 | –
12 | – | CNc1nc(C)c(-c2ccnc(Nc3cccc(S(C)(=O)=O)c3)n2)s1 | pIC50 [2]: 8.22; pIC50 [4]: < 5.00
13 | 6.49 | Cc1nc(C)c(-c2ccnc(Nc3cccc(N4CCOCC4)c3)n2)s1 | –
14 | – | CCNc1nc(C)c(-c2ccnc(Nc3ccc(S(=O)(=O)NCCOC)cc3)n2)s1 | pIC50 [2]: 7.92
15 | 8.70 | CNc1nc(C)c(-c2ccnc(Nc3ccc(S(C)(=O)=O)cc3)n2)s1 | –
16 | 5.49 | Cc1nc(N)sc1-c1ccnc(Nc2cccc(S(=O)(=O)N3CCOCC3)c2)n1 | –
17 | – | Cc1ccc(Nc2nccc(-c3sc(N)nc3C)n2)cc1S(=O)(=O)N1CCOCC1 | pIC50 [4]: < 5.00
18 | – | CCNc1nc(C)c(-c2ccnc(Nc3ccc(CNC(C)=O)cc3)n2)s1 | pIC50 [2]: 6.92

Row | pIC50 [1] | SMILES | further results
19 | 5.60 | COc1cc(Nc2nccc(-c3sc(CO)nc3C)n2)ccc1N1CCOCC1 | –
20 | – | CCOC(=O)Cc1cccc(NS(=O)(=O)c2ccc(Nc3nccc(-c4sc(NC)nc4C)n3)cc2)c1 | pIC50 [2]: 5.49
21 | 5.49 | Cc1nc(N(C)c2cccnc2)sc1-c1ccnc(Nc2ccc(N3CCOCC3)cc2)n1 | –
22 | – | CNc1nc(C)c(-c2ccnc(Nc3ccc(S(N)(=O)=O)cc3)n2)s1 | pIC50 [4]: < 5.00
23 | 7.22 | CCNS(=O)(=O)c1ccc(Nc2nccc(-c3sc(C)nc3C)n2)cc1 | –
24 | 6.92 | Cc1nc(N)sc1-c1ccnc(Nc2cccc(S(=O)(=O)NCCO)c2)n1 | –
25 | – | Cc1nc(CS(=O)(=O)c2cccs2)sc1-c1ccnc(Nc2ccc(N3CCOCC3)cc2)n1 | inhibition [2]: 91%; inhibition [3]: 86%; inhibition [4]: 67%
26 | – | CNc1nc(C)c(-c2ccnc(Nc3cccc(S(=O)(=O)NC(C)=O)c3)n2)s1 | pIC50 [2]: 5.49
27 | 6.49 | CCNc1nc(C)c(-c2ccnc(Nc3cccc(S(=O)(=O)NCC)c3)n2)s1 | –
28 | – | CCNc1nc(C)c(-c2ccnc(Nc3ccc(N4CCN(Cc5ccccc5)CC4)cc3)n2)s1 | pIC50 [2]: 5.49
29 | 8.52 | CNc1nc(C)c(-c2ccnc(Nc3ccc(S(=O)(=O)NCCOC)cc3)n2)s1 | –
30 | – | CCNc1nc(C)c(-c2ccnc(Nc3cccc(CC(=O)OCCOC)c3)n2)s1 | pIC50 [2]: 5.49
31 | 6.49 | CNc1nc(C)c(-c2ccnc(Nc3cccc(S(=O)(=O)NCCO)c3)n2)s1 | –
32 | 6.92 | CNc1nc(C)c(-c2ccnc(Nc3ccc(OC)c(C)c3)n2)s1 | –
33 | 6.49 | CNc1nc(C)c(-c2ccnc(Nc3cc(OC)cc(OC)c3)n2)s1 | –
34 | 7.22 | CNc1nc(C)c(-c2ccnc(Nc3cccc(S(=O)(=O)NC)c3)n2)s1 | –
35 | – | CCNc1nc(C)c(-c2ccnc(Nc3ccc(S(=O)(=O)NCc4ccccc4)cc3)n2)s1 | pIC50 [2]: 5.49
36 | 6.92 | Cc1nc(NC(C)(C)C)sc1-c1ccnc(Nc2ccc(N3CCOCC3)cc2)n1 | –
